Assay results reported in patent publication US20170183306A1, “CYCLIC COMPOUNDS HAVING A 1,3 DIAMINO-FUNCTIONALITY FOR USE IN THE TREATMENT OF HIV INFECTION” (Universite Paris Descartes, priority 2014, published 2017).
Counter-ions that a name gives are not always drawn. Like-named read-outs stand apart in the source and are kept apart here.

Experiments:
Format in all cases: cell-based
J-Lat cells = test: J-Lat cells, percentage of GFP-positive cells by cytometry; conditions: 24 h, compound alone
Method in brief: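 J-Lat cells (5.105 per well, RPMI/10% FBS) treated 24 h with compound alone at 37 °C. After PFA fixation, GFP-positive cells counted by flow cytometry and reported as percentage of living fluorescent cells.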

HeLa-p4 cells = test: Cell viability assay (MTS) on HeLa-p4 cells
Method in brief: (§1)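 HeLa CD4 LTR-LacZ cells infected with 1 ng p24 of wild-type NL4-3 alongside graded compound concentrations; β-galactosidase measured 48 h post-infection by CPRG colorimetry, expressed as percent of untreated virus control. Viability assessed by MTS absorbance at […].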

[1] = test system: wild type NL4-3 virus (HIV-1) in HeLa-p4 cells; test: HeLa-p4 single-cycle HIV-1 infectivity, beta-galactosidase CPRG test; conditions: for activity at 50 µM: read-out: Hela-p4 CPRG 50 μM; for activity at 100 µM: read-out: Hela-p4 CPRG 100 μM
Method in brief: as §1

[2] = Human immunodeficiency virus 1, NL43, HeLaP4, 50 μM, 48 hours after infection, control = NL4-3 virus alone
[3] = Human immunodeficiency virus 1, NL43, HeLaP4, 100 μM, 48 hours after infection, control = NL4-3 virus alone
[4] = Human immunodeficiency virus 1, NL43, HeLaP4, 48 hours after infection, control = NL4-3 virus alone
[5] = Human immunodeficiency virus 1, NL43, HeLaP4, 48 h

Structure (SMILES)	J-lat 50 μM (J-Lat cells)	J-lat 100 μM (J-Lat cells)	Hela-p4 MTS 50 μM (HeLa-p4 cells; cell viability)	Hela-p4 MTS 100 μM (HeLa-p4 cells; cell viability)	activity at 50 µM [1, 2] [%]	activity at 100 µM [1, 3] [%]	Hela-p4 MTS 200 μM (HeLa-p4 cells; cell viability)	activity at 200 µM [1, 4] [%]	activity at 50 µM [1, 5] [%]	activity at 100 µM [1, 5] [%]	Hela-p4 MTS 50 μM (HeLa-p4 cells; human)	Hela-p4 MTS 100 μM (HeLa-p4 cells; human)
N[C@@H]1C[C@H](N)CN(CCc2ccc3c(c2)OCO3)C1 [ECO01-033-C, 1-(2-(benzo[d][1,3]dioxol-5-yl)ethyl)piperidine-3,5-diamine]	0.1 percentage of the living fluorescent cells	0.2 percentage of the living fluorescent cells	97	94	103	146	–	–	–	–	–	–
CCOc1ccc(CCN2C[C@H](N)C[C@H](N)C2)cc1 [ECO02-005-C, 1-(4-ethoxyphenethyl)piperidine-3,5-diamine]	0.5 percentage of the living fluorescent cells	0.1 percentage of the living fluorescent cells	106	97	127	195	–	–	–	–	–	–
COc1ccc2[nH]cc(CCN3C[C@H](N)C[C@H](N)C3)c2c1 [AB-84, (3S,5R)-1-(2-(5-methoxy-1H-indol-3-yl)ethyl)piperidine-3,5-diamine]	0.1 percentage of the living fluorescent cells	6.9 percentage of the living fluorescent cells	62	60	112	75	–	–	–	–	–	–
N[C@@H]1C[C@H](N)CN(CCc2ccc(O)cc2)C1 [ECO02-028-C, 4-(2-(3,5-diaminopiperidin-1-yl)ethyl)phenol]	0.3 percentage of the living fluorescent cells	0.2 percentage of the living fluorescent cells	100	83	107	89	–	–	–	–	–	–
N[C@@H]1C[C@H](N)CN(Cc2ccccc2)C1 [ECO02-063-C, 1-benzylpiperidine-3,5-diamine trihydrochloride]	2.9 percentage of the living fluorescent cells	–	108	112	85	107	81	193	–	–	–	–
N[C@@H]1C[C@H](N)CN(Cc2ccco2)C1 [ECO02-065-C]	0.5 percentage of the living fluorescent cells	–	91	88	108	125	68	205	–	–	–	–
N[C@@H]1C[C@H](N)CN(c2ccccc2)C1 [ECO01-037-C, 1-phenylpiperidine-3,5-diamine]	0.6 percentage of the living fluorescent cells	0.2 percentage of the living fluorescent cells	97	106	103	103	–	–	–	–	–	–
COc1cccc(CCN2C[C@@H](N)C[C@@H](NC(=O)OC(C)(C)C)C2)c1 [ECO02-078-C]	0.8 percentage of the living fluorescent cells	–	105	103	251	390	25	145	–	–	–	–
CN(C)c1ccc(CN2C[C@H](N)C[C@H](N)C2)cc1 [ECO02-069-B, 1-(4-(dimethylamino)benzyl)piperidine-3,5-diamine]	1.3 percentage of the living fluorescent cells	–	99	94	–	–	–	–	86	88	–	–
COc1cccc(CCN2C[C@@H](N)C[C@@H](NS(C)(=O)=O)C2)c1 (racemic) [ECO02-073-C, rac-cis-N-(5-amino-1-(3-methoxyphenethyl)piperidin-3-yl) methanesulfonamide]	0.8 percentage of the living fluorescent cells	–	100	99	151	205	79	417	–	–	–	–
COc1cc(CN2C[C@H](N)C[C@H](N)C2)cc(OC)c1 [ECO02-064-C, 1-(3,5-dimethoxybenzyl)piperidine-3,5-diamine]	2.4 percentage of the living fluorescent cells	–	115	107	109	133	–	–	–	–	–	–
COc1ccc(CN2C[C@H](N)C[C@H](N)C2)cc1 [AB-378, (3S,5R)-1-(4-methoxybenzyl)piperidine-3,5-diamine]	0.2 percentage of the living fluorescent cells	1.7 percentage of the living fluorescent cells	98	94	169	199	72	312	–	–	–	–
COC(=O)[C@@H](Cc1ccccc1)N1C[C@H](N)C[C@H](N)C1 [AB-109 F3, (R)-methyl 2-((3S,5R)-3,5-diaminopiperidin-1-yl)-3-phenylpropanoate]	0.1 percentage of the living fluorescent cells	4.9 percentage of the living fluorescent cells	110	95	164	153	75	289	–	–	–	–
COc1ccc(CCN2C[C@H](N)C[C@H](N)C2)cc1 [ECO02-025-C, 1-(4-methoxyphenethyl)piperidine-3,5-diamine]	0.3 percentage of the living fluorescent cells	0.3 percentage of the living fluorescent cells	112	82	90	123	–	–	–	–	–	–
CC(C)(C)OC(=O)N[C@@H]1C[C@H](NC(=O)OC(C)(C)C)CN(Cc2ccc(N3CCCC3)cc2)C1 [ECO02-059-C, di-tert-butyl (1-(4-(pyrrolidin-1-yl)benzyl)piperidine-3,5-diyl)dicarbamate]	0.5 percentage of the living fluorescent cells	–	95	67	198	177	–	–	–	–	–	–
N[C@@H]1C[C@H](N)CN(C23CC4CC(CC(C4)C2)C3)C1 [AB541, 1-(adamantan-1-yl)piperidine-3,5-diamine]	0.1 percentage of the living fluorescent cells	10.5 percentage of the living fluorescent cells	–	–	158	157	–	–	–	–	141	123
N[C@H]1CC(OCc2cn(CC(=O)c3cc4ccc3CCc3ccc(cc3)CC4)nn2)[C@@H](N)C1 (stereo partly shown) [RA 20]	0.1 percentage of the living fluorescent cells	1.1 percentage of the living fluorescent cells	108	97	167	188	–	–	–	–	–	–
N[C@@H]1C[C@H](N)CN(c2ccc3[nH]ccc3c2)C1 [AB-86, (3S,5R)-1-(1H-indol-5-yl)piperidine-3,5-diamine]	0.1 percentage of the living fluorescent cells	2.6 percentage of the living fluorescent cells	81	74	80	66	–	–	–	–	–	–
CC(C)(C)OC(=O)N[C@@H]1C[C@H](NC(=O)OC(C)(C)C)CN(Cc2ccccc2)C1 [ECO02-056-C, di-tert-butyl (1-benzylpiperidine-3,5-diyl)dicarbamate]	1.6 percentage of the living fluorescent cells	–	67	38	100	79	–	–	–	–	–	–
